{
  "source": "paper PMC10383801",
  "about": "(Pharmaceutics, 2023)",
  "key": {"diabetic rats": {"system": "diabetic rats", "assay": "Antidiabetic effect study in diabetic rats", "format": "in vivo", "conditions": "streptozotocin-induced diabetic rats; for reduction in blood glucose level (in words): 5 rats per group, glucometer, 0-8 h", "method": "Glucose lowering effect of orally administered optimized SMEDDS was monitored in diabetic rats. Study was performed with the approval Pharmacy Ethical Committee, Bahauddin Zakariya University, Multan, Pakistan (249/PEC/2023 dated 25 March 2023). Diabetes was introduced in rats weighing 220–240 g by injecting streptozotocin solution at the dose of (45 mg/kg body weight) intraperitoneally. Fasting blood glucose (FBG) level of all the rats was measured after 3 days using glucometer (AccuChek Performa, Hoffman-La Roche, Basel, Switzerland). Rats with FBG level 200–250 mg/dL were considered diabetic and were included in the study. All rats were fasted over night before experiment and start of treatment. Diabetic rats were divided randomly in 5 groups with 5 rats per group. […] Blood samples were collected at regular time intervals, i.e., 0, 0.5, 1, 1.5, 2, 3, 4, 6, and 8 h and measured for hypoglycemic effects using glucometer."}, "[1]": {"conditions": "stated without reference; cited from earlier work", "text": "HIP of peptides with surfactants is an efficient tool to enhance its lipophilic characteristics. […] These six positively charged amino acids (two Histidine, one Arginine, one Lysine and two N-terminal amino aci ..."}, "Solubility in n-octanol": {"assay": "Solubility in n-octanol", "format": "physicochemical", "conditions": "insulin measured spectrophotometrically at 270 nm, sentence also cites refs 14, 15", "method": "After 4 h of magnetic stirring, the mixture was centrifuged for 30 min at 5000 rpm."}},
  "data": [
    {"substance": "Human insulin", "values": [
      {"measurement": "reduction in blood glucose level (in words)", "setting": "diabetic rats; oral, 50 IU/kg insulin equivalent", "value": "negligible anti-diabetic effect"},
      {"measurement": "reduction in blood glucose level (in words)", "setting": "diabetic rats; subcutaneous, 5 IU/kg", "value": "Maximum reduction in blood glucose level"},
      {"measurement": "duration of glucose lowering effect", "setting": "diabetic rats; subcutaneous, 5 IU/kg, entire duration of the experiment", "value": "up to 8 h"},
      {"measurement": "isoelectric point", "setting": "[1]", "value": "5.35–5.45"},
      {"measurement": "solubility in n-octanol", "setting": "Solubility in n-octanol", "value": "~17", "unit": "µg/mL"}
    ]}
  ]
}
